Strand notation (5' to 3'): a small letter for the sugar, then the base; units joined by * are phosphorothioate-linked, units joined directly phosphodiester-linked; [ ] holds rarer units or linkages, { } end groups; capitals alone tell only the bases. d = 2'-deoxy (DNA); m = 2'-O-methyl; r = 2'-OH (RNA)
System: Kif11 mRNA
Experiment: In vivo administration of LNPs to mice, H&E histopathology of aberrant mitotic figures
Settings: mouse bone marrow, 5 consecutive high power (400×) microscopic fields per sample
Procedure: In Vivo Administration. Selected LNPs were dosed IV via tail vein injection on three successive days and the indicated tissues (see FIG. 11-13) were harvested and fixed in 10% zinc-formalin overnight, processed, paraffin embedded, sectioned at 5 μm, and stained with hematoxylin and eosin for histopathology assessment. In vivo delivery and Kif11 knockdown was shown with an increase in aberrant mitotic figures as a surrogate for Kif11 mRNA loss in murine liver, spleen and bone marrow tissue. Mitotic figures refer to chromosome aggregation during mitosis.

Substance: LUC: control siRNA targeting Firefly Luciferase mRNA, 21 nucleotides, SEQ ID 3 and 4 (chain 1 mCmUmUrAmCrGmCmUrGrArGmUrAmCmUmUmCrGrAdT*dT; chain 2 rUrCrGrArArGmUrArCrUmCrArGrCrGmUrArArGdT*dT; listed as Photinus pyralis)
- Average no. of aberrant mitotic figures: 0

Source: patent publication US20130072543A1, “Compounds and Compositions for Nucleic Acid Formulation and Delivery” (ARROWHEAD RESEARCH CORPORATION, priority 2011, published 2013)
